Measurements: the supplement of paper PMC10307832

What was measured:
Assay in all cases: relative viability (nuclei count vs DMSO), 5 days (fraction); higher = more cells survive
[1] = tested on: NCI-H2023
Summary of the method: (§1)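 One day after seeding in 1536-well plates, lung cancer cell lines were dosed by pin tool. Dosing was either single-drug or a fixed anchor-drug dose plus five library-drug doses (not always all listed) in √10 steps. After 5 days, nuclei were stained in one fix-and-stain step and counted on 4× images, and relative viability is the nuclei count of treated wells over that of vehicle wells, given as the median of duplicate plates.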

[2] = tested on: NCI-H2085
Summary of the method: as §1

[3] = tested on: NCI-H2170
Summary of the method: as §1

[4] = tested on: NCI-H23
Summary of the method: as §1

[5] = tested on: NCI-H2405
Summary of the method: as §1

[6] = tested on: NCI-H322M
Summary of the method: as §1

[7] = tested on: NCI-H441
Summary of the method: as §1

[8] = tested on: NCI-H650
Summary of the method: as §1

[9] = tested on: NCI-H727
Summary of the method: as §1

[10] = tested on: RERF-LC-KJ
Summary of the method: as §1

[11] = tested on: SK-MES-1
Summary of the method: as §1

[12] = tested on: UMC-11
Summary of the method: as §1

O=C(O)CCCCC(CCSCc1ccccc1)SCc1ccccc1 (configuration not stated) [CPI-613] + O=C(c1cc(Cc2n[nH]c(=O)c3ccccc23)ccc1F)N1CCN(C(=O)C2CC2)CC1 [Olaparib] (partner 8 µM)
relative viability ([1]; first compound 158.11 µM): 0.134 | relative viability ([1]; first compound 500 µM): 0.009 | relative viability ([2]; first compound 5 µM): 0.745 | relative viability ([2]; first compound 15.81 µM): 0.712 | relative viability ([2]; first compound 50 µM): 0.725 | relative viability ([2]; first compound 158.11 µM): 0.362 | relative viability ([2]; first compound 500 µM): 0.209 | relative viability ([3]; first compound 5 µM): 0.591 | relative viability ([3]; first compound 15.81 µM): 0.554 | relative viability ([3]; first compound 50 µM): 0.534 | relative viability ([3]; first compound 158.11 µM): 0.403 | relative viability ([3]; first compound 500 µM): 0.18 | relative viability ([4]; first compound 5 µM): 0.33 | relative viability ([4]; first compound 15.81 µM): 0.28 | relative viability ([4]; first compound 50 µM): 0.282 | relative viability ([4]; first compound 158.11 µM): 0.0911 | relative viability ([4]; first compound 500 µM): 0.0098 | relative viability ([5]; first compound 5 µM): 0.89 | relative viability ([5]; first compound 15.81 µM): 0.787 | relative viability ([5]; first compound 50 µM): 0.781 | relative viability ([5]; first compound 158.11 µM): 0.25 | relative viability ([5]; first compound 500 µM): 0.0972 | relative viability ([6]; first compound 5 µM): 0.74 | relative viability ([6]; first compound 15.81 µM): 0.769 | relative viability ([6]; first compound 50 µM): 0.761 | relative viability ([6]; first compound 158.11 µM): 0.594 | relative viability ([6]; first compound 500 µM): 0.106 | relative viability ([7]; first compound 5 µM): 0.456 | relative viability ([7]; first compound 15.81 µM): 0.483 | relative viability ([7]; first compound 50 µM): 0.596 | relative viability ([7]; first compound 158.11 µM): 0.109 | relative viability ([7]; first compound 500 µM): 0.0239 | relative viability ([8]; first compound 5 µM): 0.404 | relative viability ([8]; first compound 15.81 µM): 0.393 | relative viability ([8]; first compound 50 µM): 0.366 | relative viability ([8]; first compound 158.11 µM): 0.339 | relative viability ([8]; first compound 500 µM): 0.359 | relative viability ([9]; first compound 5 µM): 0.783 | relative viability ([9]; first compound 15.81 µM): 0.672 | relative viability ([9]; first compound 50 µM): 0.631 | relative viability ([9]; first compound 158.11 µM): 0.748 | relative viability ([9]; first compound 500 µM): 0.678 | relative viability ([10]; first compound 5 µM): 0.979 | relative viability ([10]; first compound 15.81 µM): 0.83 | relative viability ([10]; first compound 50 µM): 0.804 | relative viability ([10]; first compound 158.11 µM): 0.273 | relative viability ([10]; first compound 500 µM): 0.133 | relative viability ([11]; first compound 5 µM): 0.641 | relative viability ([11]; first compound 15.81 µM): 0.635 | relative viability ([11]; first compound 50 µM): 0.556 | relative viability ([11]; first compound 158.11 µM): 0.163 | relative viability ([11]; first compound 500 µM): 0.0936 | relative viability ([12]; first compound 5 µM): 0.352 | relative viability ([12]; first compound 15.81 µM): 0.371 | relative viability ([12]; first compound 50 µM): 0.375 | relative viability ([12]; first compound 158.11 µM): 0.155 | relative viability ([12]; first compound 500 µM): 0.115
